Measurements reported in PubChem BioAssay AID1963872 (Molecular Pharmacology Branch, DTP, NCI, 2024).

Test system: KRAS patient-derived spheroids with HUVEC/MSC, viability
Assay: Anticancer human tumor 519858-162-T-J1-PDC patient-derived colon adenocarcinoma cell line growth inhibition [KRAS2]
Details: for IC50: curve of first compound; for viability, T/C: stronger effect = lower value
In short: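 KRAS-mutant tumor cells were grown as spheroids with HUVEC endothelial cells and human MSCs as stroma. Targeted agents were tested alone and with KRAS pathway inhibitors. Doses started at or near clinical Cmax, or 10 microM, descending half-log.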

[1] = second compound 0.1 µM, first compound 0.00316 µM
[2] = second compound 0.1 µM, first compound 0.01 µM
[3] = second compound 0.1 µM, first compound 0.0316 µM
[4] = second compound 0.1 µM, first compound 0.1 µM
[5] = second compound 0.1 µM, first compound 0.316 µM
[6] = second compound 0.1 µM, first compound 1 µM
[7] = second compound 0.316 µM, first compound 0.00316 µM
[8] = second compound 0.316 µM, first compound 0.01 µM
[9] = second compound 0.316 µM, first compound 0.0316 µM
[10] = second compound 0.316 µM, first compound 0.1 µM
[11] = second compound 0.316 µM, first compound 0.316 µM
[12] = second compound 0.316 µM, first compound 1 µM
[13] = second compound 1 µM, first compound 0.00316 µM
[14] = second compound 1 µM, first compound 0.01 µM
[15] = second compound 1 µM, first compound 0.0316 µM
[16] = second compound 1 µM, first compound 0.1 µM
[17] = second compound 1 µM, first compound 0.316 µM
[18] = second compound 1 µM, first compound 1 µM
[19] = second compound 3.16 µM, first compound 0.00316 µM
[20] = second compound 3.16 µM, first compound 0.01 µM
[21] = second compound 3.16 µM, first compound 0.0316 µM
[22] = second compound 3.16 µM, first compound 0.1 µM
[23] = second compound 3.16 µM, first compound 0.316 µM
[24] = second compound 3.16 µM, first compound 1 µM
[25] = second compound 10 µM, first compound 0.00316 µM
[26] = second compound 10 µM, first compound 0.01 µM
[27] = second compound 10 µM, first compound 0.0316 µM
[28] = second compound 10 µM, first compound 0.1 µM
[29] = second compound 10 µM, first compound 0.316 µM
[30] = second compound 10 µM, first compound 1 µM
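Note: compound exposure lasted seven days before readout.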
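Throughout, for viability, T/C: 100% = DMSO vehicle control viability.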

SMILES	IC50 (second compound 0.1 µM) [nM]	IC50 (second compound 0.316 µM) [nM]	IC50 (second compound 1 µM) [nM]	IC50 (second compound 3.16 µM) [nM]	viability, T/C [1] [%]	viability, T/C [2] [%]	viability, T/C [3] [%]	viability, T/C [4] [%]	viability, T/C [7] [%]	viability, T/C [8] [%]	viability, T/C [9] [%]	viability, T/C [10] [%]	viability, T/C [13] [%]	viability, T/C [14] [%]	viability, T/C [15] [%]	viability, T/C [16] [%]	viability, T/C [19] [%]	viability, T/C [20] [%]	viability, T/C [21] [%]	viability, T/C [22] [%]	further results
CCN1CCN(Cc2ccc(Nc3ncc(F)c(-c4cc(F)c5nc(C)n(C(C)C)c5c4)n3)nc2)CC1 + C=CC(=O)N1CCN(c2nc(=O)n(-c3c(C)ccnc3C(C)C)c3nc(-c4c(O)cccc4F)c(F)cc23)C(C)C1	> 1000	> 1000	> 1000	742	83	67.4	71.9	72.4	98.6	96.5	79.2	62.2	61.9	111	83.6	60.4	84.2	93.7	69.3	73.9	IC50 (second compound 10 µM): 265 nM; viability, T/C [5]: 78.6%; viability, T/C [6]: 59.3%; viability, T/C [11]: 66%; viability, T/C [12]: 49.2%; viability, T/C [17]: 72.8%; viability, T/C [18]: 50.4%; viability, T/C [23]: 64.6%; viability, T/C [24]: 44.6%; viability, T/C [25]: 109%; viability, T/C [26]: 97.7%; viability, T/C [27]: 51.8%; viability, T/C [28]: 75.7%; viability, T/C [29]: 60.5%; viability, T/C [30]: 23.4%
CC(C)n1nc(-c2ccc3oc(N)nc3c2)c2c(N)ncnc21 + C=CC(=O)N1CCN(c2nc(OCC3CCCN3C)nc3c2CCN(c2cccc4cccc(C)c24)C3)CC1CC#N	35	79.8	> 100	55.7	74.3	70.2	50.9	39.2	78.3	66.8	64.4	46.7	78.7	68.2	84.6	66.2	76	67	63	38.6	IC50 (second compound 0.0316 µM): > 100 nM; viability, T/C (second compound 0.0316 µM, first compound 0.000316 µM): 97.9%; viability, T/C (second compound 0.0316 µM, first compound 0.001 µM): 82%; viability, T/C (second compound 0.0316 µM, first compound 0.00316 µM): 81.8%; viability, T/C (second compound 0.0316 µM, first compound 0.01 µM): 63.5%; viability, T/C (second compound 0.0316 µM, first compound 0.0316 µM): 61.8%; viability, T/C (second compound 0.0316 µM, first compound 0.1 µM): 57.7%; viability, T/C (second compound 0.1 µM, first compound 0.000316 µM): 103%; viability, T/C (second compound 0.1 µM, first compound 0.001 µM): 104%; viability, T/C (second compound 0.316 µM, first compound 0.000316 µM): 74.6%; viability, T/C (second compound 0.316 µM, first compound 0.001 µM): 83.8%; viability, T/C (second compound 1 µM, first compound 0.000316 µM): 81%; viability, T/C (second compound 1 µM, first compound 0.001 µM): 82.7%; viability, T/C (second compound 3.16 µM, first compound 0.000316 µM): 80.6%; viability, T/C (second compound 3.16 µM, first compound 0.001 µM): 76.4%
CCN1CCN(Cc2ccc(Nc3ncc(F)c(-c4cc(F)c5nc(C)n(C(C)C)c5c4)n3)nc2)CC1 + CNCc1ccccc1-c1csc(C(C)Nc2nc(C)nc3cc(OC)c(OC)cc23)c1	640	178	207	22.4	86	67.9	88.8	82	98.1	76.4	51.9	60.9	79	61.4	59.6	59.2	56.3	56.5	47.3	16.2	IC50 (second compound 10 µM): < 3.16 nM; viability, T/C [5]: 61.4%; viability, T/C [6]: 42.8%; viability, T/C [11]: 48.1%; viability, T/C [12]: 42.9%; viability, T/C [17]: 49.3%; viability, T/C [18]: 21.2%; viability, T/C [23]: 31.1%; viability, T/C [24]: 29.7%; viability, T/C [25]: 0.31%; viability, T/C [26]: 0.24%; viability, T/C [27]: 0.75%; viability, T/C [28]: 0.26%; viability, T/C [29]: 0.21%; viability, T/C [30]: 2.71%
